Test results from patent US20130023553A1, “PEGYLATED OPIOIDS WITH LOW POTENTIAL FOR ABUSE AND SIDE EFFECTS” (Nektar Therapeutics, priority 2010, published 2013).
Entries after “also recorded” stand apart in the source; their conditions may differ.

How the values were obtained:
human mu opioid receptor = biological target: T1, human mu opioid receptor (Homo sapiens, UniProt P35372); assay: cell-based
T1 construct: expressed in transfected cells; host or cells: CHO cells

Sprague-Dawley rats = assay: Abuse liability: three-day substitution test in rats trained to self-administer cocaine; settings: i.v. self-administration
[1] = Pharmacokinetics following oral (PO) dosing; type: in vivo, Sprague-Dawley rats; settings: male, Sprague-Dawley, rat, plasma
From the text: (§1) There were 3 rats/group. All animals were food fasted overnight. […] The predose sample was collected from the JVC.
(§2) Following the last collection point, the animals were euthanized.

Sprague-Dawley male rats = assay: Motor coordination (sedation) on the rotarod treadmill; type: in vivo; settings: for sedation compared to oxycodone: equianalgesic dose
Procedure: The following studies were conducted to evaluate the effect of orally administered PEG-6-O-hydroxycodone on motor coordination (i.e., sedation) in rats using the rat rotarod Treadmill. Motor coordination was evaluated at 0.5 h and 1 h post-dose.
The rats weighed between 240 to 280 grams on the day of study. Rats were not fasted prior to dosing.
Animals were trained to run on the treadmill for 2 consecutive days prior to the day of study. Animals were trained at a constant speed of 10 RPM and were given as many trials as necessary until they were able to stay on the rotarod for 300 seconds. Rats that were able to stay on the rod for 300 seconds were considered trained. On the day of study, animals were placed on the rotarod treadmill at 0, 30, and 60 minutes post dose. The treadmill was set at a constant speed of 4 RPM for 15 seconds, at this point the timer was started (T=0). After this 15 second period, the rotarod was set to accelerate from 4-40 RPM over a five minute period (using the built in program of the rotarod). The time (in seconds) that each animal stopped running and tripped the plate was recorded as the animal's run time. Animals that ran for 300 seconds were taken of the treadmill and 300 seconds was recorded as the run time.
The objective of this study was to evaluate the effect of 10, 30, 100, and 300 mg/kg of PEG-6-O-hydroxycodone on motor coordination in rats using the rotarod treadmill. All doses were administered orally and evaluated at 0.5 h and 1 h post-dose.

squirrel monkeys = assay: Monkey self-administration model of addictive potential
mice = assay: Oral dose giving maximal analgesia; type: in vivo
[2] = Pharmacokinetics following intravenous (IV) dosing; type: in vivo, Sprague-Dawley rats; settings: male, Sprague-Dawley, rat, plasma, hydroxycodone series, 1 mg/kg IV, Mean ± SD
From the text: as §1, §2

[3] = listed as mPEG6-O-hydroxycodone
[4] = hydroxycodone series, 5.0 mg/kg oral, Mean ± SD

T1 sequence (P35372 whole entry): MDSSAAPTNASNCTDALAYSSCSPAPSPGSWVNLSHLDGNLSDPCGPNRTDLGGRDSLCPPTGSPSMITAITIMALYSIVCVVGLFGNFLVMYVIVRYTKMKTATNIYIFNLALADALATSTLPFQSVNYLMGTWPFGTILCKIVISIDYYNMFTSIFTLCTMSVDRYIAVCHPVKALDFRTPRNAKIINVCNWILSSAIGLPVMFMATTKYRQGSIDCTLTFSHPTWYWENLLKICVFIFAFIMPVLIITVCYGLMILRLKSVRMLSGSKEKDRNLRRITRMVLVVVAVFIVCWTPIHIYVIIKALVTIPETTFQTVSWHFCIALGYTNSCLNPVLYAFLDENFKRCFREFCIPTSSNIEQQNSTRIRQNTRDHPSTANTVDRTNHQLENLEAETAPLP

COCCOCCOCCOCCOCCOCCOC1CCC2(O)C3Cc4ccc(OC)c5c4C2(CCN3C)C1O5 (stereo not drawn) [α-6-mPEG6-O-hydroxycodone, α-6-mPEG6-O-oxycodone]
Emax (human mu opioid receptor; maximal response at the highest tested concentration, read-out: % max effect, mu opioid receptor): 102%
EC50 (human mu opioid receptor; read-out: EC50, mu opioid receptor): 12.5 µM
reinforcing behavior, three-day substitution (Sprague-Dawley rats): no reinforcing behavior was observed; also recorded: lack of reinforcing behavior
reinforcing behavior, three-day substitution (Sprague-Dawley rats; [3]): no behavioral evidence of positive reinforcement
bioavailability ([1]; po, 5 mg/kg): 55.3%
AUC [1, 4]: 585 ng·h/mL
MRT last [1, 4]: 2.57 h
AUC(0-inf) ([1]; hydroxycodone series, 5.0 mg/kg oral, Mean ± SD, * n = 2): 603 ng·h/mL
half-life ([1]; hydroxycodone series, 5.0 mg/kg oral, Mean ± SD, * n = 2, read-out: T1/2(z)): 1.42 ± 0.131 h
Cmax ([1]; hydroxycodone series, 5.0 mg/kg oral, Mean ± SD, read-out: Cmax): 171 ± 76.6 ng/mL
Tmax ([1]; hydroxycodone series, 5.0 mg/kg oral, median value, read-out: Tmax (converted)): 2 h
motor impairment, overall (Sprague-Dawley male rats; 300 mg/kg oral, 0.5 h and 1 h post-dose): slight motor impairment
rotarod performance, overall (Sprague-Dawley male rats; 10, 30, 100 mg/kg oral): failed to impair rotarod performance
sedation compared to oxycodone (Sprague-Dawley male rats; listed as PEG-6-O-hydroxycodone): produces less sedation than the parent opioid
sedation compared to oxycodone (Sprague-Dawley male rats; [3]): less sedation
time spent on the rotarod compared to saline control (Sprague-Dawley male rats; initial study, 30 mg/kg oral, 0.5 h post-dose): showed a reduction in time spent on the rotarod
rotarod performance compared to saline control (Sprague-Dawley male rats; initial study, 10, 100 or 300 mg/kg oral, 0.5 h and 1 h post-dose): did not exhibit impaired rotarod performance
time spent on rotarod compared to saline control (Sprague-Dawley male rats; repeated study, 300 mg/kg oral, 0.5 h and 1 h post-dose): showed a reduction in time spent on rotarod
rotarod performance compared to saline control (Sprague-Dawley male rats; repeated study, 10, 30 or 100 mg/kg oral, 0.5 h and 1 h post-dose): did not demonstrate impaired rotarod performance
injection lever responses (% ILR) (squirrel monkeys; 0.03 mg/kg/injection): only food lever responses
injection lever responses (% ILR) (squirrel monkeys; 1 mg/kg/injection): 39%
subjects showing addictive behavior (squirrel monkeys; 1 mg/kg/injection): 25%
injection lever responses (% ILR) (squirrel monkeys; 1 mg/kg/injection, listed as α-mPEG-6-O-hydroxycodone): 38±24%
subjects showing addictive behavior (squirrel monkeys; 3 mg/kg/injection): 50%
oral dose at which maximal analgesia was obtained (mice): 100 mg/kg
AUC [2]: 210 ng·h/mL
AUC(0-inf) [2]: 218 ng·h/mL
MRT last [2]: 0.795 h
clearance [2]: 77.9 ± 14.4 mL/min/kg
Cmax ([2]; read-out: Cmax): 445 ± 83.6 ng/mL
half-life ([2]; read-out: T1/2(z)): 1.04 ± 0.0862 h
Vd ([2]; read-out: Vss): 4.68 ± 0.938 L/kg
